Organism: Rattus norvegicus
Assay: Open TG-GATES - Regimen: Single
Assay type: toxicity, organism-based, Sprague-Dawley
Set-up: regimen Single, gender Male, age 6 weeks
Settings: in vivo, po, 0 mg/kg, route gavage, dose level Control; for APTT / Bas / Eos / Fbg / Hb / Ht / Lym / MCH / MCHC / MCV / Mono / Neu / PT / Plat / RBC / Ret / WBC: tissue Blood; for KIDNEY_L / KIDNEY_R / KIDNEY_TOTAL: tissue Kidney; for LIVER: tissue Liver; for A/G / ALP / ALT / AST / BUN / CRE / Ca / Cl / DBIL / GLC / IP / K / LDH / Na / PL / RALB / TBIL / TC / TG / TP / gamma-GTP: tissue Plasma

Cn1c(=O)c2[nH]cnc2n(C)c1=O.O [THEOPHYLLINE]
TERMINAL_BW (3 h): 221.7 g
APTT (3 h): 22.2 s
Bas (3 h): 0%
Eos (3 h): 0.8%
Fbg (3 h): 289.8 mg/dL
Hb (3 h): 13.1 g/dL
Ht (3 h): 39.5%
Lym (3 h): 83.2%
MCH (3 h): 20.7 pg
MCHC (3 h): 33.2%
MCV (3 h): 62.5 fL
Mono (3 h): 1.8%
Neu (3 h): 13.6%
PT (3 h): 15.5 s
Plat (3 h): 119 x10_4/uL
RBC (3 h): 632.2 x10_4/ul
Ret (3 h): 8.4%
WBC (3 h): 101.2 x10_2/uL
KIDNEY_L (3 h): 1 g
KIDNEY_R (3 h): 1 g
KIDNEY_TOTAL (3 h): 2 g
LIVER (3 h): 10.3 g
A/G (3 h): 1.3
ALP (3 h): 1309 IU/L
ALT (3 h): 43.6 IU/L
AST (3 h): 70 IU/L
BUN (3 h): 13.8 mg/dL
CRE (3 h): 0.2 mg/dL
Ca (3 h): 10.5 mg/dL
Cl (3 h): 105 meq/L
DBIL (3 h): 0 mg/dL
GLC (3 h): 190.4 mg/dL
IP (3 h): 8.8 mg/dL
K (3 h): 4.2 meq/L
LDH (3 h): 179 IU/L
Na (3 h): 142.6 meq/L
PL (3 h): 135.8 mg/dL
RALB (3 h): 3 g/dL
TBIL (3 h): 0.018 mg/dL
TC (3 h): 77.4 mg/dL
TG (3 h): 49.2 mg/dL
TP (3 h): 5.3 g/dL
gamma-GTP (3 h): 1.2 IU/L
TERMINAL_BW (6 h): 213.2 g
APTT (6 h): 21.5 s
Bas (6 h): 0%
Eos (6 h): 0.6%
Fbg (6 h): 300.6 mg/dL
Hb (6 h): 13.7 g/dL
Ht (6 h): 40.9%
Lym (6 h): 82.2%
MCH (6 h): 20.8 pg
MCHC (6 h): 33.4%
MCV (6 h): 62.3 fL
Mono (6 h): 2.6%
Neu (6 h): 13.2%
PT (6 h): 15.6 s
Plat (6 h): 118.7 x10_4/uL
RBC (6 h): 657.2 x10_4/ul
Ret (6 h): 7.4%
WBC (6 h): 102.6 x10_2/uL
KIDNEY_L (6 h): 1 g
KIDNEY_R (6 h): 1 g
KIDNEY_TOTAL (6 h): 1.9 g
LIVER (6 h): 9.1 g
A/G (6 h): 1.2
ALP (6 h): 1402.8 IU/L
ALT (6 h): 39.8 IU/L
AST (6 h): 75.6 IU/L
BUN (6 h): 10.8 mg/dL
CRE (6 h): 0.1 mg/dL
Ca (6 h): 10.4 mg/dL
Cl (6 h): 105.8 meq/L
DBIL (6 h): 0 mg/dL
GLC (6 h): 183.8 mg/dL
IP (6 h): 9.3 mg/dL
K (6 h): 4.4 meq/L
LDH (6 h): 202 IU/L
Na (6 h): 142.6 meq/L
PL (6 h): 124.6 mg/dL
RALB (6 h): 2.9 g/dL
TBIL (6 h): 0.024 mg/dL
TC (6 h): 72.8 mg/dL
TG (6 h): 48.2 mg/dL
TP (6 h): 5.4 g/dL
gamma-GTP (6 h): 1 IU/L
TERMINAL_BW (9 h): 212.6 g
APTT (9 h): 22.9 s
Bas (9 h): 0%
Eos (9 h): 0.8%
Fbg (9 h): 310.2 mg/dL
Hb (9 h): 13.3 g/dL
Ht (9 h): 39.9%
Lym (9 h): 77.6%
MCH (9 h): 20.5 pg
MCHC (9 h): 33.3%
MCV (9 h): 61.6 fL
Mono (9 h): 2.4%
Neu (9 h): 18%
PT (9 h): 15.8 s
Plat (9 h): 119 x10_4/uL
RBC (9 h): 649.6 x10_4/ul
Ret (9 h): 7.5%
WBC (9 h): 79.6 x10_2/uL
KIDNEY_L (9 h): 1 g
KIDNEY_R (9 h): 1 g
KIDNEY_TOTAL (9 h): 2 g
LIVER (9 h): 8.6 g
A/G (9 h): 1.2
ALP (9 h): 1444.4 IU/L
ALT (9 h): 35.2 IU/L
AST (9 h): 70.4 IU/L
BUN (9 h): 12.6 mg/dL
CRE (9 h): 0.2 mg/dL
Ca (9 h): 10.8 mg/dL
Cl (9 h): 105.8 meq/L
DBIL (9 h): 0 mg/dL
GLC (9 h): 188 mg/dL
IP (9 h): 9.2 mg/dL
K (9 h): 4.3 meq/L
LDH (9 h): 180.6 IU/L
Na (9 h): 140.8 meq/L
PL (9 h): 125.6 mg/dL
RALB (9 h): 3.1 g/dL
TBIL (9 h): 0.022 mg/dL
TC (9 h): 73.2 mg/dL
TG (9 h): 52.8 mg/dL
TP (9 h): 5.5 g/dL
gamma-GTP (9 h): 1 IU/L
TERMINAL_BW (24 h): 228.3 g
APTT (24 h): 21.9 s
Bas (24 h): 0%
Eos (24 h): 1%
Fbg (24 h): 291.2 mg/dL
Hb (24 h): 13.6 g/dL
Ht (24 h): 40.4%
Lym (24 h): 82.2%
MCH (24 h): 20.8 pg
MCHC (24 h): 33.7%
MCV (24 h): 61.5 fL
Mono (24 h): 2.6%
Neu (24 h): 13%
PT (24 h): 15.9 s
Plat (24 h): 115.8 x10_4/uL
RBC (24 h): 657 x10_4/ul
Ret (24 h): 6.9%
WBC (24 h): 97 x10_2/uL
KIDNEY_L (24 h): 1 g
KIDNEY_R (24 h): 1 g
KIDNEY_TOTAL (24 h): 2 g
LIVER (24 h): 10.4 g
A/G (24 h): 1.2
ALP (24 h): 1398.8 IU/L
ALT (24 h): 40.8 IU/L
AST (24 h): 69.4 IU/L
BUN (24 h): 16.6 mg/dL
CRE (24 h): 0.2 mg/dL
Ca (24 h): 10.9 mg/dL
Cl (24 h): 106.2 meq/L
DBIL (24 h): 0 mg/dL
GLC (24 h): 193.4 mg/dL
IP (24 h): 7.7 mg/dL
K (24 h): 4.3 meq/L
LDH (24 h): 221 IU/L
Na (24 h): 143.4 meq/L
PL (24 h): 151.6 mg/dL
RALB (24 h): 3 g/dL
TBIL (24 h): 0.008 mg/dL
TC (24 h): 80.4 mg/dL
TG (24 h): 100.2 mg/dL
TP (24 h): 5.5 g/dL
gamma-GTP (24 h): 1.2 IU/L
